Test results: US9938281B2 (Merck Sharp & Dohme Corp., priority 2012, dated 2018)

Tests used:
PI3K-delta = target: T1, PI3K-delta (Homo sapiens, UniProt O00329); experiment: HTRF PI3K biochemical assay, delta isoform; conditions: form screened (neutral or TFA salt) given, read-out: PI3Kdelta IC50
T1 construct: purchased Upstate; Millipore 14-604

PI3K-alpha = target: T2, PI3K-alpha (Homo sapiens, UniProt P42336); experiment: HTRF PI3K biochemical assay, alpha isoform; conditions: ratio PI3K-alpha IC50 value / PI3K-delta IC50 value
T2 construct: purchased Upstate; Millipore 14-602
T2 sequence (P42336 whole entry, canonical isoform): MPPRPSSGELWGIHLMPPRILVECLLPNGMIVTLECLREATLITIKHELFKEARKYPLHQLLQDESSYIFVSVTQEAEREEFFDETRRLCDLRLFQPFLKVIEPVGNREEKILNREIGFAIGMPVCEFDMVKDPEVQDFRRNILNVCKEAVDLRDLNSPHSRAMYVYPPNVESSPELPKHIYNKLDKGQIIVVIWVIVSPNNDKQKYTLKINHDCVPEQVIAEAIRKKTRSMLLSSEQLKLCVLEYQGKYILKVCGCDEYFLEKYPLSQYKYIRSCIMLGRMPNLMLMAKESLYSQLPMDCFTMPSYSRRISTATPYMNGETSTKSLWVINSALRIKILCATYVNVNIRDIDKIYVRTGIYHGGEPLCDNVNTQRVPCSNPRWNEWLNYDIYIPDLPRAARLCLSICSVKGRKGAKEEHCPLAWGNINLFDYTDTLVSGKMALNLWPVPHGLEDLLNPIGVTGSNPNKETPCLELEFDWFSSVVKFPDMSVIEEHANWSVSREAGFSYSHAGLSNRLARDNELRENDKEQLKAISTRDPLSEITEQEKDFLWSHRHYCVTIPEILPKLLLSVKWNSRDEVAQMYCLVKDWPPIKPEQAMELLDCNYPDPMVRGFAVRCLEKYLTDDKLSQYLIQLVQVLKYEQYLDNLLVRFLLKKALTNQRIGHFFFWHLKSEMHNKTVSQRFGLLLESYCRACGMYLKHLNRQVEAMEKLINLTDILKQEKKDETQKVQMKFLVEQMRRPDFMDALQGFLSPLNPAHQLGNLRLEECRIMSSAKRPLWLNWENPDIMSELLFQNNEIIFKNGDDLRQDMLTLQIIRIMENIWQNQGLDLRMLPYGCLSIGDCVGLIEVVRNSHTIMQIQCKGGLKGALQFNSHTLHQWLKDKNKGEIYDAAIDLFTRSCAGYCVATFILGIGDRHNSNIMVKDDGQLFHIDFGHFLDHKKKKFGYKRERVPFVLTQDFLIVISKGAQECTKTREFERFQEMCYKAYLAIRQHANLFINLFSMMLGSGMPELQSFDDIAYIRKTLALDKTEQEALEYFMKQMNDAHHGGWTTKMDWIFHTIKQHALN
T2 sequence (P27986 whole entry partner, canonical isoform): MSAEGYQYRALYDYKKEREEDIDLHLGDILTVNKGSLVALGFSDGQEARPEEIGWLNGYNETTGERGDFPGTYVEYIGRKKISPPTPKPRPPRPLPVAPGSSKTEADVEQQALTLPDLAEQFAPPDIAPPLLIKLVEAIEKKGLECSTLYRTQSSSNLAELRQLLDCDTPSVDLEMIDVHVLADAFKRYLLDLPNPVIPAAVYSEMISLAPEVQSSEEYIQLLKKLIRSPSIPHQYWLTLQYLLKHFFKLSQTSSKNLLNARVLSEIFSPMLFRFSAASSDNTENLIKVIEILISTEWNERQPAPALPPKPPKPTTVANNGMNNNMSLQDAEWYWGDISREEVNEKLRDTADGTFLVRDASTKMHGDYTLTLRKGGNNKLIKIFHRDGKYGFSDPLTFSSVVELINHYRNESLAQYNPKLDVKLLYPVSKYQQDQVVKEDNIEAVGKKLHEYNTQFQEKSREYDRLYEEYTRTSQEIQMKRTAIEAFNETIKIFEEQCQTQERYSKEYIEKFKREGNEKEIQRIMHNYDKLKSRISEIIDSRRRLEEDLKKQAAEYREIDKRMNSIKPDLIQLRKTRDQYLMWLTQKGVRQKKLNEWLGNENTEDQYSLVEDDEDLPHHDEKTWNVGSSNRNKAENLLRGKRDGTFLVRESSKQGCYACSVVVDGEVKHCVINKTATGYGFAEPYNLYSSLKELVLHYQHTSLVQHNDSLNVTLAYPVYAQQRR

T1 sequence (O00329 whole entry, canonical isoform): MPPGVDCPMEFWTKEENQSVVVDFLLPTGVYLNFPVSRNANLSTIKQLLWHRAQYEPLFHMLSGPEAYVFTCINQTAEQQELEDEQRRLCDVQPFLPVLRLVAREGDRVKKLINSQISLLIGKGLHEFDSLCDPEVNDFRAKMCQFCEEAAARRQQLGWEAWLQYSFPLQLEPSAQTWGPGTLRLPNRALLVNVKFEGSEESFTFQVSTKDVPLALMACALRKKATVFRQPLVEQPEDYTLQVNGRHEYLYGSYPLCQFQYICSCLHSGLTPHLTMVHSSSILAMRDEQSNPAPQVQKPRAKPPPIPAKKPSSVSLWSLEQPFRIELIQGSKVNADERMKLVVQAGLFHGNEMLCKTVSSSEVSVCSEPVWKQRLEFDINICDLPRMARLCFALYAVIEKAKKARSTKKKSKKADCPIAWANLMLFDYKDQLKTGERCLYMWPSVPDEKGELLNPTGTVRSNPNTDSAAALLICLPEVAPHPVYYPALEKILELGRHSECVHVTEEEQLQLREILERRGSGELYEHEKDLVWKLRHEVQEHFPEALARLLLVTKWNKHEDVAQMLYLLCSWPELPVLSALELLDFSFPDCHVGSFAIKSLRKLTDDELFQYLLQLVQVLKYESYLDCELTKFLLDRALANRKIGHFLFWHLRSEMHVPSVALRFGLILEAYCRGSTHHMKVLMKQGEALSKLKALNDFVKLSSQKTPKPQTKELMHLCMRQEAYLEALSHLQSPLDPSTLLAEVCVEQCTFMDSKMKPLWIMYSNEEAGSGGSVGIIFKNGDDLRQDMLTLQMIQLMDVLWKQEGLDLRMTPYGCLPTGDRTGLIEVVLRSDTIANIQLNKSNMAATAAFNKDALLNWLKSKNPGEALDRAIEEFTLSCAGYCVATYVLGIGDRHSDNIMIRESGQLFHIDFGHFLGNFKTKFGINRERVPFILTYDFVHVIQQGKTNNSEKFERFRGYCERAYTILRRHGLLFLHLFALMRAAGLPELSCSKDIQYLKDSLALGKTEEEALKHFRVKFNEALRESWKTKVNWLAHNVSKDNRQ
T1 sequence (P27986 whole entry partner, canonical isoform): as the sequence (P27986 whole entry partner, canonical isoform) above

| Structure (SMILES) | IC50 (PI3K-delta) [nM] | Selectivity versus PI3Kalpha (PI3K-alpha) |
| --- | --- | --- |
| CCC(=O)N1CC[C@H](Nc2ncnc3c2nc(-c2cncc(C(C)(C)O)c2)n3C)C1 [Compound 3-34, 2-[5-(9-methyl-6-{[(3S)-1-propanoylpyrrolidin-3-yl]amino}-9H-purin-8-yl)pyridin-3-yl]propan-2-ol] | 2 | >10 |
| CCn1c(C(=O)Nc2ccccn2)nc2c(N[C@H]3CCN(C(=O)C4CC4)C3)ncnc21 [Compound 6-20, 6-{[(3S)-1-(cyclopropylcarbonyl)pyrrolidin-3-yl]amino}-9-ethyl-N-pyridin-2-yl-9H-purine-8-carboxamide] | 23 | >10 |
| CCn1c(C(=O)N[C@H]2CC[C@H](O)CC2)nc2c(N[C@H]3CCN(C(=O)C4CC4)C3)ncnc21 [Compound 6-7, 6-{[(3S)-1-(cyclopropylcarbonyl)pyrrolidin-3-yl]amino}-9-ethyl-N-(trans-4-hydroxycyclohexyl)-9H-purine-8-carboxamide] | 19 | >10 |
| CCn1c(-c2cnc(C)nc2)nc2c(N[C@H]3CCN(C(=O)NCC4CCS(=O)(=O)C4)C3)ncnc21 (mixture of isomers) [Compound 12-20, (3S)-N-[((S and R)-1,1-dioxidotetrahydrothiophen-3-yl)methyl]-3-{[9-ethyl-8-(2-methylpyrimidin-5-yl)-9H-purin-6-yl]amino}pyrrolidine-1-carboxamide] | 9.4 | >10 |
| CCn1c(-c2cnc(C)nc2)nc2c(N[C@H]3CCN(C(=O)C4CC45CCCC5)C3)ncnc21 (single isomer, unassigned) [Compound 2-35, 9-ethyl-8-(2-methylpyrimidin-5-yl)-N-[(3S)-1-((R or S)-spiro[2.4]hept-1-ylcarbonyl)pyrrolidin-3-yl]-9H-purin-6-amine] | < 1 | >10 |
| CCn1c(-c2cnc(C)nc2)nc2c(N[C@H]3CCN(c4cccc(OC)n4)C3)ncnc21 [Compound 4-7, 9-ethyl-N-[(3S)-1-(6-methoxypyridin-2-yl)pyrrolidin-3-yl]-8-(2-methylpyrimidin-5-yl)-9H-purin-6-amine] | 1.4 | >10 |
| CCn1c(-c2cnc(C)nc2)nc2c(N[C@H]3CC[C@@H](C(=O)N4CCC4)C3)ncnc21 [Compound 5-6, N-[(1S,3R)-3-(azetidin-1-ylcarbonyl)cyclopentyl]-9-ethyl-8-(2-methylpyrimidin-5-yl)-9H-purin-6-amine] | 11 | >10 |
| CCn1c(-c2cnc(C)nc2)nc2c(N[C@H]3CCN(C(=O)[C@H]4CC[C@@H](O)CC4)C3)ncnc21 [Compound 2-98, cis-4-{[(3S)-3-{[9-ethyl-8-(2-methylpyrimidin-5-yl)-9H-purin-6-yl]amino}pyrrolidin-1-yl]carbonyl}cyclohexanol] | 2.8 | >10 |
| CCn1c(-c2cnc(C)nc2)nc2c(NC3CN(C(=O)C4CC4)CC3F)ncnc21 (single isomer, unassigned) [Compound 3-21, N-[(3R,4R or 3S,4S)-1-(cyclopropylcarbonyl)-4-fluoropyrrolidin-3-yl]-9-ethyl-8-(2-methylpyrimidin-5-yl)-9H-purin-6-amine] | 3.4 | >10 |
| CCn1c(-c2cnc(C)nc2)nc2c(N[C@H]3CCN(C(=O)OCCOC)C3)ncnc21 [Compound 13-7, 2-methoxyethyl (3S)-3-{[9-ethyl-8-(2-methylpyrimidin-5-yl)-9H-purin-6-yl]amino}pyrrolidine-1-carboxylate] | 4.1 | >10 |
| CCn1c(-c2cnc(C)nc2)nc2c(N[C@H]3CCN(C(=O)NC(C)(C)CC(C)(C)C)C3)ncnc21 [Compound 12-25, (3S)-3-{[9-ethyl-8-(2-methylpyrimidin-5-yl)-9H-purin-6-yl]amino}-N-(1,1,3,3-tetramethylbutyl)pyrrolidine-1-carboxamide] | 1.4 | >10 |
| COc1ncc(-c2nc3c(N[C@H]4CCN(C(=O)OC(C)(C)C)C4)ncnc3n2C)cc1C [Compound 1-8, (S)-tert-butyl 3-((8-(6-methoxy-5-methylpyridin-3-yl)-9-methyl-9H-purin-6-yl)amino)pyrrolidine-1-carboxylate] | 1.7 | >10 |
| CCn1c(-c2cnc(C)nc2)nc2c(N[C@H]3CCN(C(=O)OCC(C)(C)C)C3)ncnc21 [Compound 13-4, 2,2-dimethylpropyl (3S)-3-{[9-ethyl-8-(2-methylpyrimidin-5-yl)-9H-purin-6-yl]amino}pyrrolidine-1-carboxylate] | 8.2 | >10 |
| CCn1c(-c2cnc(C)nc2)nc2c(N[C@H]3CCN(C(=O)C4CC(F)(F)C4)C3)ncnc21 [Compound 2-24, (S)-(3,3-difluorocyclobutyl)(3-((9-ethyl-8-(2-methylpyrimidin-5-yl)-9H-purin-6-yl)amino)pyrrolidin-1-yl)methanone] | 6.8 | >10 |
| CCn1c(-c2cnc(OC)c(F)c2)nc2c(N[C@H]3CCN(C(=O)c4cncn4C)C3)ncnc21 [Compound 3A-2, 9-ethyl-8-(5-fluoro-6-methoxypyridin-3-yl)-N-{(3S)-1-[(1-methyl-1H-imidazol-5-yl)carbonyl]pyrrolidin-3-yl}-9H-purin-6-amine] | < 1 | >10 |
| CCn1c(-c2cnc(C)nc2)nc2c(N[C@H]3CCN(c4cccc(NC)n4)C3)ncnc21 [Compound 4-8, 9-ethyl-N-{(3S)-1-[6-(methylamino)pyridin-2-yl]pyrrolidin-3-yl}-8-(2-methylpyrimidin-5-yl)-9H-purin-6-amine] | 2.3 | >10 |
| CCn1c(-c2cnc(C)nc2)nc2c(N[C@H]3CCN(C(=O)N4CCCCC4)C3)ncnc21 [Compound 12-5, 9-ethyl-8-(2-methylpyrimidin-5-yl)-N-[(3S)-1-(piperidin-1-ylcarbonyl)pyrrolidin-3-yl]-9H-purin-6-amine] | 1.2 | >10 |
| CCn1c(C(=O)NCC(F)(F)F)nc2c(N[C@H]3CCN(C(=O)N4CC(OC)C4)C3)ncnc21 [Compound 12-27, 9-ethyl-6-({(3S)-1-[(3-methoxyazetidin-1-yl)carbonyl]pyrrolidin-3-yl}amino)-N-(2,2,2-trifluoroethyl)-9H-purine-8-carboxamide] | 5.1 | >10 |
| CCn1c(-c2cnc(C)nc2)nc2c(N[C@H]3CCN(C(=O)OC(C)(C)C)C3)ncnc21 [Compound 1-13, (S)-tert-butyl 3-((9-ethyl-8-(2-methylpyrimidin-5-yl)-9H-purin-6-yl)amino)pyrrolidine-1-carboxylate] | < 1 | >10 |
| CCCN1CC[C@H](Nc2ncnc3c2nc(-c2cnn(CC)c2C)n3C)C1 [Compound 10-1, 8-(1-ethyl-5-methyl-1H-pyrazol-4-yl)-9-methyl-N-[(3S)-1-propylpyrrolidin-3-yl]-9H-purin-6-amine] | 42 | >10 |
| CCn1c(C(=O)NCCC(F)(F)F)nc2c(N[C@H]3CCN(C(=O)C4CC4)C3)ncnc21 [Compound 6-17, 6-{[(3S)-1-(cyclopropylcarbonyl)pyrrolidin-3-yl]amino}-9-ethyl-N-(3,3,3-trifluoropropyl)-9H-purine-8-carboxamide] | 14 | >10 |
| CCn1c(-c2ccc(C(F)(F)F)nc2)nc2c(N[C@H]3CCN(C(=O)C4CCCO4)C3)ncnc21 (single isomer, unassigned) [Compound 2-103, 9-ethyl-N-{(3S)-1-[(2S or 2R)-tetrahydrofuran-2-ylcarbonyl]pyrrolidin-3-yl}-8-[6-(trifluoromethyl)pyridin-3-yl]-9H-purin-6-amine] | 1.8 | >10 |
| CCC(=O)N1CC[C@H](Nc2ncnc3c2nc(-c2cnn(CC)c2C)n3C2CC2)C1 [Compound 2-16, (S)-1-(3-((9-cyclopropyl-8-(1-ethyl-5-methyl-1H-pyrazol-4-yl)-9H-purin-6-yl)amino)pyrrolidin-1-yl)propan-1-one] | 53 | >10 |
| CCn1c(C(=O)N[C@H](C)C2CC2)nc2c(N[C@H]3CCN(C(=O)C4CC4)C3)ncnc21 [Compound 6-13, 6-{[(3S)-1-(cyclopropylcarbonyl)pyrrolidin-3-yl]amino}-N-[(1R)-1-cyclopropylethyl]-9-ethyl-9H-purine-8-carboxamide] | 12 | >10 |
| CCn1c(-c2ccc(C(F)(F)F)nc2)nc2c(N[C@H]3CCN(C(=O)[C@H]4C[C@@H](OC)C4)C3)ncnc21 [Compound 2-105, 9-ethyl-N-{(3S)-1-[(cis-3-methoxycyclobutyl)carbonyl]pyrrolidin-3-yl}-8-[6-(trifluoromethyl)pyridin-3-yl]-9H-purin-6-amine] | < 1 | >10 |
| CCn1c(-c2cnc(C)nc2)nc2c(NC3CN(C(C)C4CC4)CC34CC4)ncnc21 (centres unmarked) [Compound 10-2, N(S AND R)-[5-(1-(S AND R)-cyclopropylethyl)-5-azaspiro[2.4]hept-7-yl]-9-ethyl-8-(2-methylpyrimidin-5-yl)-9H-purin-6-amine] | 41 | >10 |
| CCn1c(-c2cnc(C)nc2)nc2c(N[C@H]3CCN(C(=O)c4cn(C)nn4)C3)ncnc21 [Compound 2-75, 9-ethyl-8-(2-methylpyrimidin-5-yl)-N-{(3S)-1-[(1-methyl-1H-1,2,3-triazol-4-yl)carbonyl]pyrrolidin-3-yl}-9H-purin-6-amine] | 4.7 | >10 |
| CCn1c(N2CC[C@@H](O)C2)nc2c(N[C@H]3CCN(C(=O)C4CC4)C3)ncnc21 [Compound 8-1, (3R)-1-(6-{[(3S)-1-(cyclopropylcarbonyl)pyrrolidin-3-yl]amino}-9-ethyl-9H-purin-8-yl)pyrrolidin-3-ol] | 510 | >10 |
